Each structure is given as a SMILES string.

The nature of series [1]: Metabolic stability test, human liver microsomes. Type of series: in vitro ADME. The method, then:
• 1. Buffer A: 1.0 L of 0.1 M monobasic Potassium Phosphate buffer containing 1.0 mM EDTA • Buffer B: 1.0 L of 0.1 M Dibasic Potassium Phosphate buffer containing 1.0 mM EDTA • Buffer C: 0.1 M Potassium Phosphate buffer, 1.0 mM EDTA, at about pH 7.4 by titrating 700 mL of Buffer B with Buffer A while monitoring with the pH meter. • 2. Reference compounds (Ketanserin) and test compounds spiking solution: • 500 µM spiking solution: add 10 μL of 10 mM DMSO stock solution into […] ACN. • 1.5 µM spiking solution in microsomes (0.75 mg/mL): add 1.5 μL of 500 µM spiking solution and 18.75 μL of 20 mg/mL liver microsomes into 479.75 μL of Buffer C on ice. • 3. Prepare NADPH stock solution (6 mM) by dissolving NADPH into buffer C. • 4. Dispense 30 μL of 1.5 µM spiking solution containing 0.75 mg/mL microsomes solution to the assay plates designated for different time points (0-, 5-, 15-, 30-, 45-min) on ice. • 5. For 0-min, add 135 μL of ACN containing IS to the wells of 0-min plate and then add 15 μL of NADPH stock solution (6 mM). • 6. Pre-incubate all other plates at 37° C. for 5 minutes. • 7. Add 15 μL of NADPH stock solution (6 mM) to the plates to start the reaction and timing. • 8. At 5-min, 15-min, 30-min, and 45-min, add 135 μL of ACN containing IS to the wells of corresponding plates, respectively, to stop the reaction. • 9. After quenching, shake the plates at the vibrator (IKA, MTS 2/4) for 10 min (600 rpm/min) and then centrifuge at 5594 g for 15 min (Thermo Multifuge×3R). • 10. Transfer 50 μL of the supernatant from each well into a 96-well sample plate containing 50 μL of ultra pure water (Millipore, ZMQS50F01) for LC/MS analysis.

The target in another series is JAK2 JH1 (Homo sapiens (Human), UniProt O60674). Description: Competitive binding assay (kinase-tagged phage, qPCR), JAK2 JH1. The method, then: For most assays, kinase-tagged T7 phage strains were prepared in an E. coli host derived from the BL21 strain. E. coli were grown to log-phase and infected with T7 phage and incubated with shaking at 32° C. until lysis. The lysates were centrifuged and filtered to remove cell debris. The remaining kinases were produced in HEK-293 cells and subsequently tagged with DNA for qPCR detection. Streptavidin coated magnetic beads were treated with biotinylated small molecule ligands for 30 minutes at room temperature to generate affinity resins for kinase assays. The liganded beads were blocked with excess biotin and washed with blocking buffer (SeaBlock (Pierce), 1% BSA, 0.05% Tween 20, 1 mM DTT) to remove unbound ligand and to reduce non-specific binding. […] Test compounds were prepared as 111X stocks in 100% DMSO. Dissociation constants (Kds) were determined using an 11-point 3-fold compound dilution series with three DMSO control points. […] The kinase concentration in the eluates was measured by qPCR.
JAK2 JH1, sequence (O60674 849-1124): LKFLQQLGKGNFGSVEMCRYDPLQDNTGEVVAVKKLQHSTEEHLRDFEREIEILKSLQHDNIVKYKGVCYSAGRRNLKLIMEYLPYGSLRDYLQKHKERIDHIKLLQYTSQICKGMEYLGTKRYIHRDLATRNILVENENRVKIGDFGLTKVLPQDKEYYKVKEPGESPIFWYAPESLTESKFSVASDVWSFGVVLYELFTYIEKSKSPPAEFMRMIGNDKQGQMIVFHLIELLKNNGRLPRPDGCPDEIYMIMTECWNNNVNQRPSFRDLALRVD
An 11-point 3-fold serial dilution of each test compound was prepared in 100% DMSO at 100× final test concentration and subsequently diluted to 1× in the assay (final DMSO concentration=1%). Most Kds were determined using a compound top concentration=30,000 nM. […]
Binding constants (Kds) were calculated with a standard dose-response curve using the Hill equation: […]
(In general: Real-time PCR tracks product formation cycle by cycle.)

In another series the test system is TYK2/JAK2 pathway. Description: Selectivity: TYK2/JAK2 pathway, IL-12-induced p-STAT4 in mouse spleen cells, western blot. Type of series: cell-based, mice. The method, then: The spleen of mice was isolated and ground into single cells with bent tweezers. The single cells of the spleen were centrifuged for 5 minutes (400 g), and erythrocytes were lysed with ACK solution and neutralized in 1640 medium, centrifuged for 5 minutes (400 g), and then re-suspended in 1640 medium. The spleen single cell suspension was counted and incubated to a 6-well plate (5 million/well), the compound to be tested was added for 2 hours, and then IL-12 (50 ng/mL) was added to stimulate cells for 1 h. The cells were collected and lysed with protein lysate. The protein was quantitatively tested by BCA kit. Finally, p-STAT4/STAT4 and internal reference protein β-actin were detected by western blot.
(In general: In western blotting, separated proteins are transferred to a membrane and probed.)

A short description of series [2]: Pharmacokinetic evaluation in beagle dog. It is filed as in vivo. The settings on record: for F / AUC / Vd / clearance / half-life / Cmax / Tmax: beagle dog; for plasma exposure in beagle dog (in words): conclusion from Table 11; for AUC / Vd / clearance / half-life / Cmax / Tmax: plasma. The method, then:
The beagle dog pharmacokinetic characteristics of compounds were tested by standard protocols. The candidate compounds were made into clear solution for single intravenous injection (i.v.) and suspension for oral administration (p.o.). Intravenous and oral vehicle is 5% DMSO+10% Solutol+85% Saline. The experiment used 9 dog and 3 dog for intravenous at a dose of 1 mg/kg. Plasma samples were collected at 0 h (before dosing) and 0.083 h, 0.25 h, 0.5 h, 1 h, 2 h, 4 h, 8 h, 24 h after dosing. 3 dog were orally administrated at a dose of 5 mg/kg and 3 dog were orally administrated at a dose of 15 mg/kg. Plasma samples were collected at 0 h (before dosing) and 0.25 h, 0.5 h, 1 h, 2 h, 4 h, 6 h, 8 h, 24 h after dosing.
Blood samples were placed in tubes containing K2-EDTA and stored on ice until centrifuged. The blood samples were centrifuged at 6800 g for 6 minutes at 2-8° C. within 1 h after collected, and stored frozen at approximately −80° C.
The analytical results were confirmed using quality control samples for intra-assay variation. The accuracy of >66.7% of the quality control samples and 50% of all QC samples at each concentration level were between 80-120% of the known value(s).
Standard set of parameters including area under the curve (AUC(0-t) and AUC(0-∞)), elimination half-live (T1/2), maximum plasma concentration (Cmax), time to reach maximum plasma concentration (Tmax) were calculated using noncompartmental analysis modules in FDA certified pharmacokinetic program Phoenix WinNonlin 7.0 (Pharsight, USA) by the Study Director.

`CCC(=O)c1cnc(NC(=O)C2CC2)cc1Nc1cccc(-c2cc(P(C)(C)=O)n(C)n2)c1OC` [Compound B2, N-(4-((3-(5-(dimethylphosphoryl)-1-methyl-1H-pyrazol-3-yl)-2-methoxyphenyl)amino)-5-propionylpyridin-2-yl)cyclopropanecarboxamide]: the “stability in human liver microsomes (in words)” value in series [1] (conclusion from Table 5) is listed as “good stability”. In series [1] (human liver microsomes), the “CL HLM” value was below 8.6 mL/min/kg. In addition, the half-life at 1 μM in series [1] (pH 7.4, human liver microsomes, read-out: T1/2 HLM) was above 2.42 h.

As to `CCC(=O)c1cnc(NC(=O)C2CC2)cc1Nc1cccc(-c2cc(P(=O)(C3CC3)C3CC3)n(C)n2)c1OC` [Compound B37, N-(4-((3-(5-(dicyclopropylphosphoryl)-1-methyl-1H-pyrazol-3-yl)-2-methoxyphenyl)amino)-5-propionylpyridin-2-yl)cyclopropanecarboxamide], on JAK2 JH1, the Kd (commonly the constant that tells how readily two partners part at equilibrium) is above 30 µM. For the same compound, in the series with TYK2/JAK2 pathway (IL-12), the “inhibition of TYK2/JAK2 pathway compared with BMS986165” value is “better than BMS986165”. Moreover, in the series on TYK2/JAK2 pathway (IL-12 50 ng/mL, western blot), the “inhibition of downstream STAT4 phosphorylation induced by IL-12” value was “effectively inhibit”. The F in series [2] (p.o. 5 mg/kg) was determined as 46%. Besides, the F in series [2] (p.o. 15 mg/kg) was determined as 21%. Moreover, the “plasma exposure in beagle dog (in words)” value in series [2] was “excellent plasma exposure”. In series [2] (iv, i.v. 1 mg/kg), the AUC (commonly the area under the concentration-time curve, a measure of exposure) came to 9240 ng·h/mL; the Vd (as a rule, a proportionality between amount in the body and measured concentration, not a real space) is 0.33 L/kg; the clearance (usually the volume of plasma or blood freed of the substance per unit of time) is 1.9 mL/min/kg; the half-life was 2.2 h. Further, in series [2] (po, p.o. 5 mg/kg), the AUC is 21300 ng·h/mL; the concentration peaked (Cmax) at 3980 ng/mL; the Tmax (as a rule, the time from dosing to the highest level) stood at 0.83 h. For the same compound, in series [2] (po, p.o. 15 mg/kg), the AUC was found to be 28600 ng·h/mL, the Cmax (usually the highest concentration seen after dosing) came to 4870 ng/mL and the Tmax amounted to 0.67 h.

For `[2H]C([2H])([2H])NC(=O)c1nnc(NC(=O)C2CC2)cc1Nc1cccc(-c2cc(P(=O)(C3CC3)C3CC3)n(C)n2)c1OC` [Compound B41, 6-(cyclopropanecarboxamido)-4-((3-(5-(dicyclopropylphosphoryl)-1-methyl-1H-pyrazol-3-yl)-2-methoxyphenyl)amino)-N-(methyl-d3)pyridazine-3-carboxamide], the F in series [2] (p.o. 5 mg/kg) is 79%. Moreover, the F in series [2] (p.o. 15 mg/kg) stood at 120%. For the same compound, the “plasma exposure in beagle dog (in words)” value in series [2] is on record as “excellent plasma exposure”. In series [2] (iv, i.v. 1 mg/kg), this compound gave an AUC of 4900 ng·h/mL, a Vd of 0.56 L/kg, a clearance of 4 mL/min/kg and a half-life of 2.1 h. Also, in series [2] (po, p.o. 5 mg/kg), the area under the curve (AUC) stood at 19400 ng·h/mL, the highest level (Cmax) was 3100 ng/mL and the Tmax is 1 h. In series [2] (po, p.o. 15 mg/kg), the AUC was 88000 ng·h/mL, the concentration peaked (Cmax) at 9870 ng/mL and the Tmax turned out to be 1.7 h.

The values above are taken from US20240343747A1, “Heteroaryl compounds as inhibitors of TYK2, composition and application thereof” (Accro Bioscience (HK) Limited, priority 2021, published 2024).
